Laboratory results: US10047107B2, “Small molecule analogs of E4orf1” (BOARD OF SUPERVISORS OF LOUISIANA STATE UNIVERSITY AND …, priority 2014, dated 2018)

These compounds were tested on 3T3-L1 pre-adipocytes (assay: Glucose uptake (2-deoxy glucose uptake) by 3T3-L1 pre-adipocytes). Settings: 5 μM compound, 24 hours exposure, 3T3-L1 pre-adipocytes, basal conditions, without serum starvation, 2-DG uptake.
Format: cell-based
Procedure: Glucose uptake by 3T3-L1 cells exposed to compounds 1-11 was determined at 5 μM concentration. Cells were exposed to compounds 1-11 for 24 hours and exposure to DMSO was used as the control group. 2-Deoxy glucose (2-DG) uptake was determined using the analog compounds without serum starving the cells prior to determining glucose uptake. Glucose uptake in 3T3-L1 pre-adipocytes was determined by exposing cells to compounds 1-11 for 24 hours without serum starvation. P values presented in the Table indicate statistical significance (p<0.05).

`COc1cc(C(C#N)Nc2ccc([B-](F)(F)F)cc2)cc(OC)c1OC.[K+]` (centres unmarked) [Example 8, Potassium (4-((cyano(3,4,5-trimethoxyphenyl)methyl)amino)phenyl) trifluoroborate] was tested. Which “Percent increase in glucose uptake in comparison to DMSO treated Control” value (“Percent increase in glucose uptake” for short) did it give?
The value was 43%.

For `N#CC(Nc1ccc([B-](F)(F)F)cc1)c1ccc([B-](F)(F)F)cc1.[K+].[K+]` (centres unmarked) [Example 11], which “Percent increase in glucose uptake” value is on record?
The value was 53%.

Which “Percent increase in glucose uptake” value does the source give for `N#CC(Nc1ccc([B-](F)(F)F)cc1)c1ccc(O)cc1.[K+]` (centres unmarked) [Example 2, Potassium (4-((cyano(4-hydroxyphenyl)methyl)amino)phenyl)trifluoroborate] here?
The value was “No increase”.

Same assay, conditions: Mus musculus, 3T3-L1, 24 h, read-out: Percent increase in glucose uptake in comparison to DMSO treated Control

How did the activation at 5 µM turn out when `N#CC(Nc1ccc([B-](F)(F)F)cc1)c1cccnc1` (centres unmarked) [Example 9, Potassium (4-((cyano(pyridin-3-yl)methyl)amino)phenyl)trifluoroborate] was run?
Its activation at 5 µM is 54%.

`N#CC(Nc1ccc(O)cc1)c1ccc([B-](F)(F)F)cc1` (centres unmarked) [Example 10, Potassium (4-(cyano((4-hydroxyphenyl)amino)methyl)phenyl)trifluoroborate] was tested. Which activation at 5 µM did it give?
The activation at 5 µM was 31%.

Same assay, conditions: Mus musculus; 5 μM compound, 24 hours exposure, 3T3-L1 pre-adipocytes, basal conditions, without serum starvation, 2-DG uptake; read-out: Percent increase in glucose uptake in comparison to DMSO treated Control

With `COc1cc(C(C#N)Nc2ccc(B3OC(C)(C)C(C)(C)O3)cc2)cc(OC)c1OC` (centres unmarked) [Example 7, 2-((4-(4,4,5,5-tetramethyl-1,3,2-dioxaborolan-2-yl)phenyl)amino)-2-(3,4,5-trimethoxyphenyl)acetonitrile] as the compound, how does the activation at 5 µM read?
The activation at 5 µM was 41%.

`CC1=C(C(C#N)Nc2ccc(B3OC(C)(C)C(C)(C)O3)cc2)C(C)(C)CCC1` (centres unmarked) [Example 4, 2-((4-(4,4,5,5-tetramethyl-1,3,2-dioxaborolan-2-yl)phenyl)amino)-2-(2,6,6-trimethylcyclohex-1-en-1-yl)acetonitrile] was tested. Which activation at 5 µM did it give?
Its activation at 5 µM is 33%.

With `CC1(C)OB(c2ccc(C(C#N)Nc3ccc(O)cc3)cc2)OC1(C)C` (centres unmarked) [Example 5, 2-((4-hydroxyphenyl)amino)-2-(4-(4,4,5,5-tetramethyl-1,3,2-dioxaborolan-2-yl)phenyl)acetonitrile] as the compound, how does the activation at 5 µM read?
The activation at 5 µM was 73%.

`CC1(C)OB(c2ccc(NC(C#N)c3cccnc3)cc2)OC1(C)C` (centres unmarked) [Example 3, 2-(pyridin-3-yl)-2-((4-(4,4,5,5-tetramethyl-1,3,2-dioxaborolan-2-yl)phenyl)amino)acetonitrile] was tested. Which activation at 5 µM did it give?
The activation at 5 µM was 9%.

With `CC1(C)OB(c2ccc(NC(C#N)c3ccc(O)cc3)cc2)OC1(C)C` (centres unmarked) [Example 1, 2-(4-hydroxyphenyl)-2-((4-(4,4,5,5-tetramethyl-1,3,2-dioxaborolan-2-yl)phenyl)amino)acetonitrile] as the compound, how does the activation at 5 µM read?
The activation at 5 µM was 24%.

Which activation at 5 µM does the source give for `CC1(C)OB(c2ccc(NC(C#N)c3ccc(B4OC(C)(C)C(C)(C)O4)cc3)cc2)OC1(C)C` (centres unmarked) [Example 6, 2-(4-(4,4,5,5-tetramethyl-1,3,2-dioxaborolan-2-yl)phenyl)-2-((4-(4,4,5,5-tetramethyl-1,3,2-dioxaborolan-2-yl)phenyl)amino)acetonitrile] here?
The activation at 5 µM was 17%.
